In patent publication US6894068B2, “Substituted benzimidazoles as non-nucleoside inhibitors of reverse transcriptase” (The United States of America as represented by the …, priority 1997, dated 2005):
Read-outs that look alike come from different tables or passages of the source.

Key:
HIV-1 isolate V179D = experiment: Cytopathic cell killing assay, MT-4 cells, isolate V179D; assay type: cell-based
Excerpt: (§1) The various HIV isolates tested in the Figures are those corresponding to wild-type virus (NL4-3) and the other strains listed by their RT mutations. The three 4×AZT isolates included in the Figures represent AZT drug-resistant variants. For example, the 4×AZT/L100I isolate has five mutations: four mutations confer increased resistance to AZT, and the other mutation is located within the NNRTI binding pocket. TZB and nevir. (nevirapine) are two well-known NNRTIs, included in this experiment for comparison purposes.
(§2) In this Example, the antiviral and cellular toxicity of NNRTIs was investigated, using the cytopathic cell killing assay described by Yang (Yang et al., “Characteristics of a Group of Non-nucleoside Reverse Transcriptase Inhibitors with Structural Diversity and Potent Anti-Human Immunodeficiency Virus Activity,” Leukemia 9:S75-S85 [1995]). Briefly, in this method cells (e.g., the CEM-SS cell line, available from the NIAID AIDS Research and Reference Program [ARRRP]) were seeded at a density of 5×10^3 cells/well, into the wells of a 96-well microtiter plate. The cells were then infected with HIV virus (either mutant or WT), at a multiplicity of infection (MOI) previously determined to provide complete cell killing by 6 days of culture post-infection (e.g., MOI of 0.01-0.05). Each of the HIV isolates was pre-titered to induce equivalent levels of infection based on cell killing or virus production, prior to their use in these assays. A range of test compound concentrations was added to the wells in triplicate (e.g., serial half-log dilutions) to evaluate inhibition of HIV infection. Controls for each assay included drug controls (drug colorimetric control wells), drug cytotoxicity control wells (cells with drug), virus control wells (cells with virus), and cell viability controls (cells only). Positive control drugs (e.g. AZT and ddC) were also run in parallel.
(§3) After six days of incubation at 37° C., cell viability was determined spectrophotometrically at 450 nm for each well, using the metabolic reduction of XTT to a soluble colored formazan. (See, Gartner and Popovic, “Virus Isolation and Production, in Aldovini and Walker (eds.), Techniques in HIV Research, Stockton Press, NY, pp. […] [1991]; and Nara and Fischinger, “Quantitative Infectivity Assay for HIV-1 and HIV-2, ” Nature 332:469-470 [1988]).
(§4) The in vitro therapeutic index (TI50) was defined as the fold-difference between the EC50 and IC50. The results for the various compounds are included in FIGS. 8 and 19.

HIV-1 isolate M184I = experiment: Cytopathic cell killing assay, isolate M184I; assay type: cell-based; conditions: Human immunodeficiency virus 1, read-out: EC50, isolate M184I
Excerpt: as §1
(§5) In this Example, the antiviral and cellular toxicity of NNRTIs was investigated, using the cytopathic cell killing assay described by Yang (Yang et al., “Characteristics of a Group of Non-nucleoside Reverse Transcriptase Inhibitors with Structural Diversity and Potent Anti-Human Immunodeficiency Virus Activity,” Leukemia 9:S75-S85 [1995]). Briefly, in this method cells (e.g., the CEM-SS cell line, available from the NIAID AIDS Research and Reference Program [ARRRP]) were seeded at a density of 5×10^3 cells/well, into the wells of a 96-well microtiter plate. The cells were then infected with HIV virus (either mutant or WT), at a multiplicity of infection (MOI) previously determined to provide complete cell killing by 6 days of culture post-infection (e.g., MOI of 0.01-0.05). Each of the HIV isolates was pre-titered to induce equivalent levels of infection based on cell killing or virus production, prior to their use in these assays. A range of test compound concentrations was added to the wells in triplicate (e.g., serial half-log dilutions) to evaluate inhibition of HIV infection. […]
(§6) After six days of incubation at 37° C., cell viability was determined spectrophotometrically at 450 nm for each well, using the metabolic reduction of XTT to a soluble colored formazan. (See, Gartner and Popovic, “Virus Isolation and Production, in Aldovini and Walker (eds.), Techniques in HIV Research, Stockton Press, NY, pp. […] [1991]; and Nara and Fischinger, “Quantitative Infectivity Assay for HIV-1 and HIV-2, ” Nature 332:469-470 [1988]). […]

[1] = test system: WT and HIV-1 variants containing amino acid substitutions in RT; assay type: cell-based; conditions: cytopathic cell killing assay, NNRTI-resistant HIV isolates
Excerpt: In these Tables, antiviral data are reported as the quantity of drug in μM required to reduce cell killing or virus production by 50% (EC50). The various HIV isolates tested in the Figures are those corresponding to wild-type virus (NL4-3) and the other strains listed by their RT mutations. The three 4×AZT isolates included in the Figures represent AZT drug-resistant variants.
(§7) Briefly, in this method cells (e.g., the CEM-SS cell line, available from the NIAID AIDS Research and Reference Program [ARRRP]) were seeded at a density of 5×10^3 cells/well, into the wells of a 96-well microtiter plate. The cells were then infected with HIV virus (either mutant or WT), at a multiplicity of infection (MOI) previously determined to provide complete cell killing by 6 days of culture post-infection (e.g., MOI of 0.01-0.05). Each of the HIV isolates was pre-titered to induce equivalent levels of infection based on cell killing or virus production, prior to their use in these assays. A range of test compound concentrations was added to the wells in triplicate (e.g., serial half-log dilutions) to evaluate inhibition of HIV infection. Controls for each assay included drug controls (drug colorimetric control wells), drug cytotoxicity control wells (cells with drug), virus control wells (cells with virus), and cell viability controls (cells only). Positive control drugs (e.g. AZT and ddC) were also run in parallel.
as §3
Antiviral and toxicity data were reported as the quantity of drug required to inhibit 50% of virus-induced cell killing or virus production (EC50), and the quantity of drug required to […] (IC50). The in vitro therapeutic index (TI50) was defined as the fold-difference between the EC50 and IC50.

HIV-1 isolate Y188C = experiment: Cytopathic cell killing assay, MT-4 cells, isolate Y188C; assay type: cell-based
Excerpt: as §1, §2, §3, §4

[2] = test system: HIV-1 isolate 4xAZT (AZT drug-resistant variant); experiment: Cytopathic cell killing assay, MT-4 cells, isolate 4xAZT; assay type: cell-based; conditions: Human immunodeficiency virus 1, MT4, read-out: EC50, isolate 4XAZT
Excerpt: as §1, §5, §6

[3] = test system: HIV-1 isolate 4xAZT/Y181C; experiment: Cytopathic cell killing assay, MT-4 cells, isolate 4xAZT/Y181C; assay type: cell-based; conditions: Human immunodeficiency virus 1, MT4, read-out: EC50, isolate 4XAZT/Y181C
Excerpt: as §1, §2, §3, §4

HIV-1 isolate L100I = experiment: Cytopathic cell killing assay, MT-4 cells, isolate L100I; assay type: cell-based
Excerpt: as §1, §2, §3, §4

HIV-1 NL4-3 (WT) = experiment: Cytopathic cell killing assay, MT-4 cells, isolate NL4-3 (WT); assay type: cell-based
Excerpt: as §1, §2, §3, §4

HIV-1 isolate K101E = experiment: Cytopathic cell killing assay, MT-4 cells, isolate K101E; assay type: cell-based
Excerpt: as §1, §2, §3, §4

HIV-1 isolate Y188H = experiment: Cytopathic cell killing assay, isolate Y188H; assay type: cell-based; conditions: Human immunodeficiency virus 1, read-out: EC50, isolate Y188H
Excerpt: as §1, §2, §3, §4

HIV-1 isolate V106A = experiment: Cytopathic cell killing assay, MT-4 cells, isolate V106A; assay type: cell-based
Excerpt: as §1, §5, §6

[4] = test system: HIV-1 isolate 4xAZT/L100I; experiment: Cytopathic cell killing assay, MT-4 cells, isolate 4xAZT/L100I; assay type: cell-based; conditions: Human immunodeficiency virus 1, MT4, read-out: EC50, isolate 4XAZT/L1001
Method: The various HIV isolates tested in the Figures are those corresponding to wild-type virus (NL4-3) and the other strains listed by their RT mutations. The three 4×AZT isolates included in the Figures represent AZT drug-resistant variants.
as §7, §3
The in vitro therapeutic index (TI50) was defined as the fold-difference between the EC50 and IC50.

[5] = Human immunodeficiency virus 1, MT4, read-out: EC50, isolate K101E, Table 8, MT-4 cells

Row | Compound | EC50 (HIV-1 isolate M184I) | cross-resistance profile, result in words [1] | melting point | EC50 [2] | EC50 [3] | EC50 (HIV-1 isolate K101E; [5]) | EC50 (HIV-1 isolate Y188H) | EC50 [4] | further results
1 | Nc1cccc2c1nc(-c1c(F)cccc1F)n2Cc1c(F)cccc1F [Compound 3300, 4-amino-1-(2,6-difluorobenzyl)-2-(2,6-difluorophenyl)benzimidazole] | 650 nM | inhibit HIV-1 better than TZB | 168 to 170 °C | 200 nM | > 10 µM | > 20 µM | > 50 µM | 300 nM | EC50 (HIV-1 isolate V179D; Human immunodeficiency virus 1, MT4, read-out: EC50, isolate V179D, Table 8, MT-4 cells): 300 nM; EC50 (HIV-1 isolate Y188C; Human immunodeficiency virus 1, MT4, read-out: EC50, isolate Y188C, Table 8, MT-4 cells): 2.7 µM; EC50 (HIV-1 isolate Y188C; Human immunodeficiency virus 1, MT4, read-out: EC50, isolate Y188C, Table 10, values in μM): 2 µM; EC50 (HIV-1 isolate L100I; Human immunodeficiency virus 1, MT4, read-out: EC50, isolate L1001, Table 8, MT-4 cells): 1300 nM; EC50 (HIV-1 NL4-3 (WT); Human immunodeficiency virus 1, NL43, MT4, Table 8, MT-4 cells, read-out: EC50, isolate NL4-3): 0.5 µM; EC50 (HIV-1 NL4-3 (WT); Human immunodeficiency virus 1, NL43, MT4, Table 10, values in μM, read-out: EC50, isolate NL4-3 (WT)): 0.68 µM; EC50 (HIV-1 NL4-3 (WT); Table 10, values in μM, listed as NH2, read-out: EC50, isolate NL4-3 (WT)): 0.4 µM; EC50 (HIV-1 isolate V106A; Human immunodeficiency virus 1, MT4, read-out: EC50, isolate V106A, Table 8, MT-4 cells): > 20 µM
2 | CCc1cccc2c1nc(-c1c(F)cccc1F)n2Cc1c(F)cccc1F [Compound 4011, 1-(2,6-difluorobenzyl)-2-(2,6-difluorophenyl)-4-ethylbenzimidazole] | 960 nM | inhibit HIV-1 better than TZB | 165 to 166 °C | 3000 nM | > 20 µM | > 20 µM | 13.2 µM | 600 nM | EC50 (HIV-1 isolate V179D; Human immunodeficiency virus 1, MT4, read-out: EC50, isolate V179D): 1800 nM; EC50 (HIV-1 isolate Y188C; Human immunodeficiency virus 1, MT4, read-out: EC50, isolate Y188C): 5.5 µM; EC50 (HIV-1 isolate L100I; Human immunodeficiency virus 1, MT4, read-out: EC50, isolate L100I): 2480 nM; EC50 (HIV-1 isolate L100I; Human immunodeficiency virus 1, MT4, read-out: EC50, isolate L1001): 600 nM; EC50 (HIV-1 NL4-3 (WT); Human immunodeficiency virus 1, NL43, MT4, read-out: EC50, isolate NL4-3): 1.1 µM; EC50 (HIV-1 NL4-3 (WT); Human immunodeficiency virus 1, NL43, MT4, read-out: EC50, isolate NL4-3 (WT)): 0.9 µM; EC50 (HIV-1 isolate K101E; Human immunodeficiency virus 1, MT4, read-out: EC50, isolate K101E, Table 10, values in μM): > 50 µM; EC50 (HIV-1 isolate V106A; Human immunodeficiency virus 1, MT4, read-out: EC50, isolate V106A): > 20 µM
